# Experiments:
# Lectin Pathway = Lectin Pathway Activation Assay in Human Serum (mannan-coated ELISA, C3c detection); type: biochemical; settings: 1% human serum
# Protocol: Microtiter ELISA plate was coated with mannan from Saccharomyces cerevisiae (Sigma-Aldrich, M7504) for overnight at 4° C. in coating buffer [15 mM Na2CO3, 35 mM NaHCO3].
# MASP-2 CCP2-SP = MASP-2 CCP2-SP (Homo sapiens (Human), UniProt O00187); assay: MASP-2 co-crystallization, X-ray crystallography and structure analysis (H-bonds, van der Waals contacts); design: van der Waals contact distance, MASP-2 HIS 483 atom CD2 / van der Waals contact distance, MASP-2 HIS 483 atom NE2 / van der Waals contact distance, SER 654 C to compound atom / van der Waals contact distance, SER 654 O to compound atom / van der Waals contact distance, TRP 655 C to compound atom / van der Waals contact distance, MASP-2 GLY 528 atom CA / van der Waals contact distance TRP 655 atom CZ3 / van der Waals contact distance TRP 655 atom N / van der Waals contact distance TRP 655 atom CE3 / van der Waals contact distance GLY 656 atom C / van der Waals contact distance GLY 656 atom CA / van der Waals contact distance GLY 656 atom O / van der Waals contact distance, MASP-2 TYR 607 atom CD1 / van der Waals contact distance, MASP-2 PRO 606 atom O / d(C3,CA1) / d(CA1,N1)2 / d(H4,O1) / d(H4,O2) / d(O1,O2) / d(CA1,O2) / d(CA6,O1) / d(CA6,O2) / d(CA1,C5) / d(O2,H3) / d(N2,C2) / d(CA5,N2) / d(N2,C4) / d(N2,C6) / d(N2,CA3) / d(N2,O3) / d(O4,H2): unit not given beside the values;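 on Ligand-pharmacophore element distance, pharmacophore element C2: distance from averaged pharmacophore element to bound ligand; missing value means element absent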;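 on Ligand-pharmacophore element distance, pharmacophore element C3: distance from averaged pharmacophore element to bound ligand; missing value means element absent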;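 on Ligand-pharmacophore element distance, pharmacophore element C4: distance from averaged pharmacophore element to bound ligand; missing value means element absent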;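 on Ligand-pharmacophore element distance, pharmacophore element C5: distance from averaged pharmacophore element to bound ligand; missing value means element absent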
# MASP-2 CCP2-SP, sequence (O00187 445-686): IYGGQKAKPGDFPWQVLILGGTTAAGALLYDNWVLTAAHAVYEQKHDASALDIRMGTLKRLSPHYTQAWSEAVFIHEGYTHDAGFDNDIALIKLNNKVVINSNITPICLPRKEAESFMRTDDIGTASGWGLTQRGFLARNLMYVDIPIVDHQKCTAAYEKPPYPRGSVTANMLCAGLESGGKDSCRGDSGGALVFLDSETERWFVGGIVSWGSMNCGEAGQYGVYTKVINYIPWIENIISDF
# MASP-2 CCP2-SP, sequence (O00187 364-432 partner): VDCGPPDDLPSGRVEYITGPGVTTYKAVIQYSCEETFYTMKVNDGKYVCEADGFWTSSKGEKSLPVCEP
# Summary of the method: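 First, CCP2-SP constructs with or without a 6His tag are produced in E. coli. Crystals are then soaked once or twice with inhibitor, cryoprotected in 20% glycerol or frozen directly, and diffracted at synchrotron beamlines. Phasing uses molecular replacement with parts of 1Q3X.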
# [1] = Table A5-1 pharmacophore: distance between elements, S2/S1 region
# [2] = Table A5-2 pharmacophore distance, S3/S4 region
# [3] = Table A7-1, between pharmacophore elements of the bound compound
# [4] = Table A7-2, between pharmacophore elements of the bound compound
smiles,measurement,setting,value
"Cc1nc(N)ccc1CNC(=O)[C@H](C)NC(=O)[C@H]1C[C@H](Cc2ccc(-c3ccccc3)cc2)CN1 [compound 1351, (2R,4S)-4-([1,1′-Biphenyl]-4-ylmethyl)-N—((S)-1-(((6-amino-2-methylpyridin-3-yl)methyl)amino)-1-oxopropan-2-yl)pyrrolidine-2-carboxamide]",IC50,Lectin Pathway,< 50 nM
same,H-bond distance to MASP-2 ASP 627 atom OD2,"MASP-2 CCP2-SP; Table A1 (H-Bonds), ASP 627 OD2",3.22
same,H-bond distance to MASP-2 GLY 656 atom N,"MASP-2 CCP2-SP; Table A1 (H-Bonds), GLY 656 N",3.25
same,H-bond distance to MASP-2 GLY 656 atom O,"MASP-2 CCP2-SP; Table A1 (H-Bonds), GLY 656 O",2.76
same,H-bond distance to MASP-2 SER 654 atom O,"MASP-2 CCP2-SP; Table A1 (H-Bonds), SER 654 O",2.98
same,H-bond distance to MASP-2 SER 657 atom O,"MASP-2 CCP2-SP; Table A1 (H-Bonds), SER 657 O",2.8
same,"van der Waals contact distance, MASP-2 HIS 483 atom CD2",MASP-2 CCP2-SP; Table A2-1,3.66
same,"van der Waals contact distance, MASP-2 HIS 483 atom NE2",MASP-2 CCP2-SP; Table A2-1,3.9
same,"van der Waals contact distance, MASP-2 ALA 527 atom CA",MASP-2 CCP2-SP; Table A2-2,3.71
same,"van der Waals contact distance, MASP-2 PHE 529 atom CE1",MASP-2 CCP2-SP; Table A2-3,3.8
same,"van der Waals contact distance, MASP-2 amino acid atom to compound atom","MASP-2 CCP2-SP; Table A2-9, ARG 630, AA atoms CG, CZ",3.81
same,"van der Waals contact distance, VAL 653 CG1 to compound atom",MASP-2 CCP2-SP; Table A2-11,3.3
same,"van der Waals contact distance, TRP 655 CA to compound atom",MASP-2 CCP2-SP; Table A2-12,3.34
same,"Ligand-pharmacophore element distance, pharmacophore element C2","MASP-2 CCP2-SP; Table A4-1, element C2",0
same,"Ligand-pharmacophore element distance, pharmacophore element C3","MASP-2 CCP2-SP; Table A4-1, element C3",0.12
same,"Ligand-pharmacophore element distance, pharmacophore element C4","MASP-2 CCP2-SP; Table A4-1, element C4",0
same,"Ligand-pharmacophore element distance, pharmacophore element C5","MASP-2 CCP2-SP; Table A4-1, element C5",0
same,"Ligand-pharmacophore element distance, pharmacophore element C6","MASP-2 CCP2-SP; Table A4-1, element C6",0
same,"Ligand-pharmacophore element distance, pharmacophore element C7","MASP-2 CCP2-SP; Table A4-1, element C7",0
same,"Ligand-pharmacophore element distance, pharmacophore element CA1","MASP-2 CCP2-SP; Table A4-1, element CA1",0.57
same,"Ligand-pharmacophore element distance, pharmacophore element CA2","MASP-2 CCP2-SP; Table A4-1, element CA2",0.8
same,"Ligand-pharmacophore element distance, pharmacophore element CA3","MASP-2 CCP2-SP; Table A4-1, element CA3",0
same,"Ligand-pharmacophore element distance, pharmacophore element CA4","MASP-2 CCP2-SP; Table A4-1, element CA4",3.3
same,"Ligand-pharmacophore element distance, pharmacophore element CA5","MASP-2 CCP2-SP; Table A4-1, element CA5",0
same,"Ligand-pharmacophore element distance, pharmacophore element CA6","MASP-2 CCP2-SP; Table A4-1, element CA6",0
same,"d(C3,CA1)",MASP-2 CCP2-SP; [1],2.85
same,"d(CA1,N1)2",MASP-2 CCP2-SP; [1],1.38
same,"d(CA1,O1)",MASP-2 CCP2-SP; [1],4.47
same,"d(CA1,O2)",MASP-2 CCP2-SP; [1],3.79
same,"d(H4,O1)",MASP-2 CCP2-SP; [1],4.47
same,"d(H4,O2)",MASP-2 CCP2-SP; [1],3.70
same,"d(O1,O2)",MASP-2 CCP2-SP; [1],3.38
same,"d(N2,CA2)",MASP-2 CCP2-SP; [2],6.12
same,"d(O2,H3)",MASP-2 CCP2-SP; [2],4.26
same,"d(O2,N2)",MASP-2 CCP2-SP; [2],2.76
same,"a(C3, CA1, O1)",MASP-2 CCP2-SP; Table A6-1 pharmacophore angle,149.86
same,"a(CA1, O1, O2)",MASP-2 CCP2-SP; Table A6-1 pharmacophore angle,103.11
same,"a(O1, O2, H4)",MASP-2 CCP2-SP; Table A6-1 pharmacophore angle,132.32
same,"a(N1, CA1, O1) b)","MASP-2 CCP2-SP; Table A6-1 pharmacophore angle, Methyl-amino-pyridine compounds",173.60
same,"a(O1, O2, H3)",MASP-2 CCP2-SP; Table A6-2 pharmacophore angle,148.60
same,"a(O1, O2, N2)",MASP-2 CCP2-SP; Table A6-2 pharmacophore angle,141.59
same,"a(O2, N2, CA2)",MASP-2 CCP2-SP; Table A6-2 pharmacophore angle,158.04
same,"Pharmacophore torsion angle a(C3, CA1, O1, H4)",MASP-2 CCP2-SP; [3],26.55
same,"Pharmacophore torsion angle a(H4, O1, O2, H3)",MASP-2 CCP2-SP; [3],51.88
same,"Pharmacophore torsion angle a(H4, O1, O2, N2)",MASP-2 CCP2-SP; [3],138.69
same,"Pharmacophore torsion angle a(N1, CA1, O1, H4)",MASP-2 CCP2-SP; [3],−0.13
same,"Pharmacophore torsion angle a(O1, H4, O2, CA1)",MASP-2 CCP2-SP; [3],−83.97
same,"Pharmacophore torsion angle a(O1, O2, N2, CA2)",MASP-2 CCP2-SP; [4],121.52
same,"Pharmacophore torsion angle a(O1, O2, N2, CA4)",MASP-2 CCP2-SP; [4],119.61

# Source: patent publication US12195427B2, “MASP-2 inhibitors and methods of use” (priority 2018, dated 2025)
